Laboratory results taken from patent US20100184596A1, “METHOD FOR THE CONTROL OF WEEDS IN TURF” (SYNGENTA CROP PROTECTION, INC., priority 2007, published 2010).

Key:
Assay type in all cases: in vivo
[1] = tested on: Taraxacum officinale (dandelion); assay: Weed control via post emergence spray, in perennial ryegrass/fine fescue mix (Table B5.5)
Protocol: (§1) The weed control efficacy of the compound of formula I was tested. The compound was applied via post emergence spray to a range of weeds, at various rates and spray treatment treatment regimes. Percentage weed control assessments were taken at various timepoints.

Perennial ryegrass = assay: Selective post-emergence herbicidal action, field trial Champaign (Table B1.1); conditions: 22 days after application
Protocol: (§2) The selectivity of the compound of formula I in turf (removal of grassy and broadleaf weeds) has been tested in turfgrass varieties selected from Kentucky bluegrass, tall fescue and perennial ryegrass and in […] selected from clover (an aggressive perennial weed) and dandelion (a weed of perennial horticultural crops and gardens which may also be a problem in some annual crops, particularly where reduced tillage is practiced).
(§3) The trials were conducted in Champaign, Ill., U.S. (Table B1.1) and Hudson, N.Y., U.S. (Table B1.2) under field conditions. Turfgrasses were maintained at approximately a 2.5″ height, like a home lawn. Mixed turf and weed stands were present. The test compounds were applied with a CO2 pressurized backpack sprayer by spraying in the form of an aqueous suspension (prepared from a wettable powder) in a concentration of 210 to 280 g/ha. The plots were then mowed and irrigated as needed. After 22 and 28 days respectively, the test is visually evaluated (100%=total damage to plant; 0%=no damage to plant).

Clover = assay: as above; conditions: 22 days after application
Protocol: as §2, §3

Kentucky blue grass = assay: as above; conditions: 22 days after application
Protocol: as §2, §3

Tall fescue = assay: as above; conditions: 22 days after application
Protocol: as §2, §3

turfgrass weeds = assay: Example B5, conclusion in words; conditions: post emergence spray
Protocol: as §1

[2] = tested on: Perennial ryegrass v. blend of Bright Star, Citation Fore and Quick Trans; assay: Phytotoxicity via granule application, various inert granules (Table B3.4); conditions: 8 DAT
Protocol: The phytotoxicity of the compound of formula I to turfgrass species was tested. The compound was applied by distribution of granule formulations of formula I, post emergence, to turfgrass species at two rates. All treatments were watered-in 1 day after application. Percentage phytotoxicity assessments were taken at various timepoints.
In Tables B3.3 and B3.4, the granular formulations tested were made by spraying the compound of formula I onto various inert granules. In each of these trials, the granule formulations were tested at a higher rate than the corresponding spray application

[3] = tested on: Richardia scabra (Florida Pusley); assay: Weed control via post emergence spray, in common centipedegrass (Table B5.2)
Protocol: as §1

[4] = tested on: St. Augustinegrass v. Delmar; assay: Phytotoxicity via post emergence spray application (Table B2.8); conditions: 1 appl
Protocol: (§4) The phytotoxicity of the compound of formula I to turfgrass species was tested. The compound was applied via post emergence spray to a range of warm and cool season turfgrass species at various rates and spray treatment treatment regimes. Percentage phytotoxicity assessments were taken at various timepoints.

St. Augustinegrass = assay: Phytotoxicity via post emergence spray application (Table B2.1)
Protocol: as §4

COCCOCc1nc(C(F)(F)F)ccc1C(=O)C1=C(O)C2CCC(C2)C1=O (centres unmarked) [Formula I, 4-Hydroxy-3-[2-(2-methoxyethoxymethyl)-6-trifluoromethylpyridine-3-carbonyl]-bicyclo[3.2.1]oct-3-en-2-one]
% control ([1]; 1 appl, 140 g ai/ha, 14 DAT): 32.50%
% control ([1]; 1 appl, 140 g ai/ha, 21 DAT): 87.50%
% control ([1]; 1 appl, 280 g ai/ha, 14 DAT): 37.50%
% control ([1]; 1 appl, 280 g ai/ha, 21 DAT): 90.00%
% control ([1]; 2 appl, 140 g ai/ha, 14 DAT): 47.50%
% control ([1]; 2 appl, 140 g ai/ha, 21 DAT): 87.50%
% control ([1]; 2 appl, 280 g ai/ha, 14 DAT): 41.25%
% control ([1]; 2 appl, 280 g ai/ha, 21 DAT): 90.00%
% damage (Perennial ryegrass; 210 g/ha): 0%
% damage (Perennial ryegrass; 280 g/ha): 0%
% damage (Clover; 210 g/ha): 88%
% damage (Clover; 280 g/ha): 92%
% damage (Kentucky blue grass; 210 g/ha): 0%
% damage (Kentucky blue grass; 280 g/ha): 0%
% damage (Tall fescue; 210 g/ha): 0%
% damage (Tall fescue; 280 g/ha): 0%
weed control, in words (turfgrass weeds): effective at controlling a variety of turfgrass weeds, even when applied at low rates
% phytotoxicity ([2]; Agsorb LUM GA granule, 520 g ai/ha): 20.0%
% phytotoxicity ([2]; Agsorb LUM MS granule, 520 g ai/ha): 5.8%
% phytotoxicity ([2]; Agsorb RUM GA granule, 520 g ai/ha): 18.8%
% phytotoxicity ([2]; Bio Dac granule, 520 g ai/ha): 13.3%
% phytotoxicity ([2]; DG Lite granule, 520 g ai/ha): 18.8%
% phytotoxicity ([2]; Eco Gran granule, 520 g ai/ha): 18.8%
% phytotoxicity ([2]; Non dispersing extruded granules, 520 g ai/ha): 18.8%
% phytotoxicity ([2]; Oil dry, 520 g ai/ha): 6.3%
% phytotoxicity ([2]; Spray, 260 g ai/ha): 31.3%
% control ([3]; 1 appl, 140 g ai/ha, 5 DAT): 16.67%
% control ([3]; 1 appl, 140 g ai/ha, 13 DAT): 25.00%
% control ([3]; 1 appl, 140 g ai/ha, 21 DAT): 33.33%
% control ([3]; 1 appl, 140 g ai/ha, 27 DAT): 33.33%
% control ([3]; 1 appl, 140 g ai/ha, 35 DAT): 23.33%
% control ([3]; 1 appl, 140 g ai/ha, 42 DAT): 16.67%
% control ([3]; 1 appl, 140 g ai/ha, 61 DAT): 13.33%
% control ([3]; 1 appl, 280 g ai/ha, 5 DAT): 20.00%
% control ([3]; 1 appl, 280 g ai/ha, 13 DAT): 36.67%
% control ([3]; 1 appl, 280 g ai/ha, 21 DAT): 46.67%
% control ([3]; 1 appl, 280 g ai/ha, 27 DAT): 41.67%
% control ([3]; 1 appl, 280 g ai/ha, 35 DAT): 38.33%
% control ([3]; 1 appl, 280 g ai/ha, 42 DAT): 28.33%
% control ([3]; 1 appl, 280 g ai/ha, 61 DAT): 38.33%
% control ([3]; 2 appl, 140 g ai/ha, 5 DAT): 16.67%
% control ([3]; 2 appl, 140 g ai/ha, 13 DAT): 20.00%
% control ([3]; 2 appl, 140 g ai/ha, 21 DAT): 41.67%
% control ([3]; 2 appl, 140 g ai/ha, 27 DAT): 33.33%
% control ([3]; 2 appl, 140 g ai/ha, 35 DAT): 60.00%
% control ([3]; 2 appl, 140 g ai/ha, 42 DAT): 53.33%
% control ([3]; 2 appl, 140 g ai/ha, 61 DAT): 8.33%
% control ([3]; 2 appl, 280 g ai/ha, 5 DAT): 16.67%
% control ([3]; 2 appl, 280 g ai/ha, 13 DAT): 28.33%
% control ([3]; 2 appl, 280 g ai/ha, 21 DAT): 46.67%
% control ([3]; 2 appl, 280 g ai/ha, 27 DAT): 35.00%
% control ([3]; 2 appl, 280 g ai/ha, 35 DAT): 61.67%
% control ([3]; 2 appl, 280 g ai/ha, 42 DAT): 61.67%
% control ([3]; 2 appl, 280 g ai/ha, 61 DAT): 16.67%
% phytotoxicity ([4]; 10 g ai/ha, 5 DAT): 5.00%
% phytotoxicity ([4]; 10 g ai/ha, 12 DAT): 5.00%
% phytotoxicity ([4]; 10 g ai/ha, 18 DAT): 0.00%
% phytotoxicity ([4]; 10 g ai/ha, 28 DAT): 0.00%
% phytotoxicity ([4]; 20 g ai/ha, 5 DAT): 6.67%
% phytotoxicity ([4]; 20 g ai/ha, 12 DAT): 6.67%
% phytotoxicity ([4]; 20 g ai/ha, 18 DAT): 2.00%
% phytotoxicity ([4]; 20 g ai/ha, 28 DAT): 0.00%
% phytotoxicity ([4]; 40 g ai/ha, 5 DAT): 11.67%
% phytotoxicity ([4]; 40 g ai/ha, 12 DAT): 18.33%
% phytotoxicity ([4]; 40 g ai/ha, 18 DAT): 4.00%
% phytotoxicity ([4]; 40 g ai/ha, 28 DAT): 0.00%
% phytotoxicity ([4]; 80 g ai/ha, 5 DAT): 16.67%
% phytotoxicity ([4]; 80 g ai/ha, 12 DAT): 30.00%
% phytotoxicity ([4]; 80 g ai/ha, 18 DAT): 5.00%
% phytotoxicity ([4]; 80 g ai/ha, 28 DAT): 0.67%
% phytotoxicity ([4]; 160 g ai/ha, 5 DAT): 23.33%
% phytotoxicity ([4]; 160 g ai/ha, 12 DAT): 46.67%
% phytotoxicity ([4]; 160 g ai/ha, 18 DAT): 8.33%
% phytotoxicity ([4]; 160 g ai/ha, 28 DAT): 3.00%
% phytotoxicity (St. Augustinegrass; 1 appl, 140 g ai/ha, 8 DAT): 36.67%
% phytotoxicity (St. Augustinegrass; 1 appl, 140 g ai/ha, 14 DAT): 28.33%
% phytotoxicity (St. Augustinegrass; 1 appl, 140 g ai/ha, 29 DAT): 0.00%
% phytotoxicity (St. Augustinegrass; 1 appl, 140 g ai/ha, 35 DAT): 0.00%
% phytotoxicity (St. Augustinegrass; 1 appl, 140 g ai/ha, 43 DAT): 0.00%
% phytotoxicity (St. Augustinegrass; 1 appl, 140 g ai/ha, 51 DAT): 0.00%
% phytotoxicity (St. Augustinegrass; 1 appl, 280 g ai/ha, 8 DAT): 40.00%
% phytotoxicity (St. Augustinegrass; 1 appl, 280 g ai/ha, 14 DAT): 43.33%
% phytotoxicity (St. Augustinegrass; 1 appl, 280 g ai/ha, 29 DAT): 0.00%
% phytotoxicity (St. Augustinegrass; 1 appl, 280 g ai/ha, 35 DAT): 0.00%
% phytotoxicity (St. Augustinegrass; 1 appl, 280 g ai/ha, 43 DAT): 0.00%
% phytotoxicity (St. Augustinegrass; 1 appl, 280 g ai/ha, 51 DAT): 0.00%
% phytotoxicity (St. Augustinegrass; 2 appl, 140 g ai/ha, 8 DAT): 43.33%
% phytotoxicity (St. Augustinegrass; 2 appl, 140 g ai/ha, 14 DAT): 40.00%
% phytotoxicity (St. Augustinegrass; 2 appl, 140 g ai/ha, 29 DAT): 0.00%
% phytotoxicity (St. Augustinegrass; 2 appl, 140 g ai/ha, 35 DAT): 28.33%
% phytotoxicity (St. Augustinegrass; 2 appl, 140 g ai/ha, 43 DAT): 8.33%
% phytotoxicity (St. Augustinegrass; 2 appl, 140 g ai/ha, 51 DAT): 1.67%
% phytotoxicity (St. Augustinegrass; 2 appl, 280 g ai/ha, 8 DAT): 41.67%
% phytotoxicity (St. Augustinegrass; 2 appl, 280 g ai/ha, 14 DAT): 51.67%
% phytotoxicity (St. Augustinegrass; 2 appl, 280 g ai/ha, 29 DAT): 0.00%
% phytotoxicity (St. Augustinegrass; 2 appl, 280 g ai/ha, 35 DAT): 30.00%
% phytotoxicity (St. Augustinegrass; 2 appl, 280 g ai/ha, 43 DAT): 11.67%
% phytotoxicity (St. Augustinegrass; 2 appl, 280 g ai/ha, 51 DAT): 5.00%
